Each structure is given as a SMILES string. pIC50: −log10 of the molar value. Like-named read-outs stand apart in the source and are kept apart here.

One data set concerns HIV. As to conditions: body weight; cited from earlier work.
For data set [1], the system named is Cell lines 193c, 191F and 199F. In words: Cytotoxicity by MTT assay in CHO-derived cell lines 193c, 191F and 199F. The following applies: FIG. 4. It counts as cell-based, Chinese hamster. As to the method: The Y-axis is (1) the percent inhibition in TAT transactivation measured according to SeAP activity in culture media (discussed infra), and (2) a measurement of cytotoxicity based on an MTT assay. The MTT assay is a known tetrazolium-based assay which measures the viability of cells. The X-axis is the concentration of compound. The solid circles, diamonds and squares represent the three different cell lines identified at the bottom of the Figure.
Compounds of formula I were also tested for anti-HIV-TAT activity with cell lines that constitutively express the SeAP gene under the control of the HIV-LTR. Cell lines 193c, 191F and 199F were derived from CHO cells (cell line of Chinese hamster ovary origin). Each line is of clonal origin and has the HIV-LTR/SeAP and the HIV-LTR/TAT sequences integrated in the cellular chromosome. One day after cells were plated (approximately 30% confluency), a compound of formula I in DMSO (0.05% final concentration) was added to the culture media at desired concentrations. The cells were washed and Compound A was replenished one day later. SeAP activity was assayed two days after the second addition of test compound. The cytotoxic effect of the compound was measured with a MTT assay, an art-recognized measurement of cytotoxicity. See Denigot et al., J. Immunol. Methods 89:271 (1986). […]

For data set [2], the system named is HIV-TAT. In words: Anti-HIV-TAT transfection assay (SeAP under HIV-LTR vs RSV-LTR in COS cells). It counts as cell-based. As to conditions: 1-50 μM; HIV-LTR/SeAP relative to RSV-LTR/SeAP; added 24 hours post transfection; average of at least three tests. As to the method:
The compounds of the present invention were also tested for anti-HIV-TAT activity in an anti-TAT assay described in co-pending patent application U.S. Ser. No. 07/428,555, filed on Oct. 30, 1989, and hereby incorporated by reference. This assay comprises the following steps:
(a) putting both the expression of the Secreted Alkaline Phosphatase (SeAP) gene and the viral transactivator TAT gene under the control of the HIV promoter LTR responsive to the action of the HIV transactivator TAT;
(b) transfecting cultured mammalian cells with plasmids which contain the gene constructs of (a) above and cause cellular production of the transactivating factor TAT and SeAP;
(c) adding the agent to be tested, here compounds of formula I; and
(d) determining the amount of SeAP produced by measuring SeAP enzymatic activity, whereby inhibition of SeAP production correlates with the anti-TAT inhibition activity.
In this assay, the inhibition of SeAP positively correlates with anti-TAT activity. The greater the ability of an agent to inhibit SeAP, the greater is its anti-TAT activity.
Specifically, with respect to the results reported below, the anti-HIV-TAT assay was run as follows: […]
determined by measuring the amount of alkaline phosphatase in […]
calculated according to the formula: […]

Another data set concerns viral RNA. The experiment in a line: Cell-associated viral RNA by RNA-RNA hybridization/reversible target capture. The format is cell-based, HIV. As to conditions: acutely infected CEM cells, FIG. 2. The method, then: In addition, the viral RNA in infected cells was quantified with an RNA-RNA hybridization/reversible target capture procedure [Gillespie et al. Molecular and Cellular Probes, 2:73 (1989)]. Reagents were purchased from GeneTrack System (MA, USA) and assays were carried out according to the procedure described by the manufacturers. 2×10^5 live cells, determined by trypan blue exclusion, were used in each assay.

Data set [3] has as its system HIV-TAT. In words: Anti-HIV-TAT activity in CHO-derived cell lines constitutively expressing SeAP under HIV-LTR. As to conditions: FIG. 4. The format is cell-based. The method, then: Compounds of formula I were also tested for anti-HIV-TAT activity with cell lines that constitutively express the SeAP gene under the control of the HIV-LTR. Cell lines 193c, 191F and 199F were derived from CHO cells (cell line of Chinese hamster ovary origin). Each line is of clonal origin and has the HIV-LTR/SeAP and the HIV-LTR/TAT sequences integrated in the cellular chromosome. One day after cells were plated (approximately 30% confluency), a compound of formula I in DMSO (0.05% final concentration) was added to the culture media at desired concentrations. The cells were washed and Compound A was replenished one day later. SeAP activity was assayed two days after the second addition of test compound. The cytotoxic effect of the compound was measured with a MTT assay, an art-recognized measurement of cytotoxicity. See Denigot et al., J. Immunol. Methods 89:271 (1986). This assay also confirmed the specific anti-TAT activity of applicants' compounds.

Data set [4] concerns HIV-1-infected CEM-cells (strain N1T). The experiment in a line: Anti-HIV effect: reduction of immunofluorescence-positive CEM cells (cell-associated viral antigens). The format is cell-based. As to the method:
(§1) Compounds were tested directly for their anti-HIV effect. The assay protocols for the inhibition of HIV-cytopathic effect and the reduction of cell-associated viral antigens were modified from published procedures (Mitsuya, et al. P.N.A.S, USA 83:1911 (1986), and Hedenskog et al., J. Med. Virol. 19:325 (I986)).
(§2) High titer virus stocks (HIV-1 NIT strain or HIV-2 uc-1 strain) were grown in CD4^+ CR10 cells in RMPI-1640 media (Gibco Laboratories) supplemented with 10% fetal calf serum and 0.1 mg/ml Gentamicin. The collected media were filtered through a 0.8 micron filter and virus isolates were concentrated 100 fold and stored at -80° C.
(§3) CD4^+ CEM cells, propagated in the same medium, were incubated for 60 minutes at 37° C. with diluted stock virus at a multiplicity of infection equal to 1 (MOI=1, approximately 1 pg p24 or 4,000 viral particles per cell). Cells were washed three times with phosphate buffered saline and resuspended in the medium at 2×10^5 cells/ml. Various quantities of the test compound in DMSO, synthesized as described above were added. Four days after infection, the number of live cells were counted by trypan blue exclusion (Mitsuya, et al. Proc. Natl. Acad. Sci. 83:1911 (1986)). At the same time, aliquots of cells were fixed with acetone and stained with antibodies from AIDS patients, followed by a second staining with fluorescein-conjugated goat anti-human IgG (Cappel). Cells stained with the fluorescent antibody were counted using a fluorescence microscope and the results were expressed as percentage of the total number of cells counted (Hedenskog et al., J. Med. Virol 19:325 (1986)).
*ID50 (μM) is the concentration of test compound that reduces the
number of immunofluorescence positive cells by 50%.

The next data set deals with viral p24 antigen. The experiment in a line: Viral p24 antigen in culture media measured by ELISA. The format is cell-based, HIV. The following applies: acutely infected CEM cells, FIG. 2. As to the method:
As an additional measure of anti-HIV activity, the amount of p24 antigen in the culture media was measured by ELISA (Abbott) according to the procedure described by the manufacturer. This measurement is an indication of HIV virus replication.

Another data set has as its system HIV-1-infected CEM-cells. The experiment in a line: Inhibition of HIV-cytopathic effect: live cell count by trypan blue exclusion. The format is cell-based. The method, then: as §1, §2, §3
In general terms: Cytopathic effects are the visible damage that an infection or toxin causes in cultured cells.

The test system of another data set is viremia. As to conditions: cited from earlier work.
The mark [5] stands for this setting: Human immunodeficiency virus 1, CCRF-CEM, 96 h, concentration that reduces the number of immunofluorescence positive cells by 50%, Table I, read-out: Anti-HIV ID50.

On to `Nc1ccn([C@H]2CC[C@@H](CO)O2)c(=O)n1` [ddC], for which the “virustatic dose range in most patients” value with HIV was 5 to 250 µg/kg.

Take `CNC1=Nc2ccc(Cl)cc2C(c2ccc[nH]2)=NC1` [Compound A, 7-chloro-N-methyl-5-(1H-pyrrol-2-yl)-3H-1,4-benzodiazepin-2-amine]: the “cytotoxic effect on the cells” value in data set [1] was “no cytotoxic effect on the cells”. For the same molecule, the “Anti-HIV-TAT Activity (% Inhibition)” value in the data set with HIV-TAT [2] is above 60%. Further, the “amount of cell-associated viral RNA” value in the data set with viral RNA is reported as “dramatically reduces”. The “inhibition of SeAP expression under the control of the HIV-LTR promoter” value with HIV-TAT [3] is “significantly inhibits SeAP expression”. The pIC50 in data set [4] (Human immunodeficiency virus 1, CCRF-CEM, 96 h, FIG. 1, HIV-1-infected CEM-cells (strain N1T), read-out: ID50 (the source's name)) is 6.30; in data set [4] (setting [5]), 6.00 to 6.30. Moreover, the IC90 in [4] (Human immunodeficiency virus 1, CCRF-CEM, 96 h, FIG. 1, HIV-1-infected CEM-cells (strain N1T), read-out: ID90 (the source's name)) worked out at 1 µM. The “percentage of cells that are immunofluorescence-positive following staining with HIV antibodies” value in data set [4] (increasing amounts of compound, FIG. 1) was “decline in the percentage of cells that are immunofluorescence-positive”. Further, the “amount of viral p24 antigen” value with viral p24 antigen is given as “dramatically reduces”. In the data set with HIV-1-infected CEM-cells (5 μM, FIG. 1, HIV-1-infected CEM-cells), the “survival rate for the HIV-infected cells” value is on record as “very close to that of uninfected cells”. Also, in the data set on HIV-1-infected CEM-cells (FIG. 1), the “survival of HIV-infected cells with increasing concentrations” value is recorded as “greater survival of HIV-infected cells”. Besides, the “cell survival in comparison to AZT or ddC” value with HIV-1-infected CEM-cells (acutely infected CEM cells, FIG. 2) is “at least similar, and at several compound concentrations, better, cell survival than AZT or ddC”.

In the case of `NC1=Nc2ccc(Cl)cc2C(c2ccc[nH]2)=NC1` [NH2, 7-chloro-5-(1H-pyrrol-2-yl)-3H-1,4-benzodiazepin-2-amine], in the data set on HIV-TAT [2], the “Anti-HIV-TAT Activity (% Inhibition)” value is above 60%. Also, the pIC50 in data set [4] (setting [5]) is 6.00.

For the molecule `Cc1cn([C@H]2C[C@H](N=[N+]=[N-])[C@@H](CO)O2)c(=O)[nH]c1=O` [AZT], the “elimination of viremia in patients” value in the data set on viremia is given as “does not eliminate viremia in patients”. Further, the drug resistance entry with viremia (patients) is “eventually the appearance of drug-resistant mutant viruses is evidenced”.

These data come from patent US5141735A (priority 1990, dated 1992).
